Source: patent US20260374818A1, “CATIONIC PEPTIDES WITH BROAD SPECTRUM ACTIVITY” (priority 2023, published 2026)
Where a SMILES comes first, the peptide text is derived from it. [ ]: non-standard residue; d: D form.

Legend:
[1] = tested on: 3-day-old oral plaque (multispecies) biofilms; test: Oral plaque biofilm model, long-term (1-3 days) exposure, dead cell volume; format: cell-based; details: for Proportion of dead biofilm cells: daily for 3 days, compared to DJK5 (FIG. 16A)
red blood cells = test: Hemolysis; format: cell-based, human; details: 4 hours
Method: Hemolysis: Peptide induced hemolysis was evaluated according to methods described previously [Hilchie, A. L., et al. (2016). Mastoparan is a membranolytic anti-cancer peptide that works synergistically with gemcitabine in a mouse model of mammary carcinoma. Biochimica Et Biophysica Acta, 1858(12), 3195-3204]. Briefly, red blood cells were obtained, with human ethics approval, from the blood of healthy volunteers collected in a sodium heparin tube and then rinsed three times in PBS, centrifuging between washes, to obtain the hematocrit (100% RBC). A 2.5% RBCs suspension was exposed to peptide at varying concentrations and incubated at 37 C in a 5% CO2 humidified atmosphere for 4 hours. Supernatants were collected following centrifugation (1100 rpm) and transferred to a flat bottom microtitre plate. The absorbance (490 nm) of each supernatant was measured on a BioTek Epoch Microplate Spectrophotometer. Percent hemolysis was calculated by comparing the absorbance arising from peptide treated cells to RBCs treated with […] (0% hemolysis) or lysed with 1% Triton X-100 (100% hemolysis).

[2] = tested on: 3-day-old oral plaque biofilms; test: Oral plaque biofilm model, brief (1 minute) exposure, dead cell volume; format: cell-based; details: 10 μg/mL, 1 minute (FIG. 11)
P. aeruginosa PAO1 = test: Biofilm inhibition (at least 80%), P. aeruginosa; format: cell-based, Pseudomonas aeruginosa; details: n = 4, BM2 minimal media, 18-24 hours, crystal violet
MRSA USA300 = test: Biofilm inhibition (at least 80%), MRSA; format: cell-based, methicillin resistant Staphylococcus aureus; details: n = 4, 10% TSB + 0.1% glucose, 18-24 hours, crystal violet
[3] = tested on: Klebsiella pneumonia KPLN649; test: Biofilm inhibition (at least 80%), K. pneumonia; format: cell-based; details: K. pneumoniae KPLN649; n = 3; BM2 minimal media; 48 hours; crystal violet
[4] = tested on: Enterobacter cloacae 218R1; test: Biofilm inhibition (at least 80%), E. cloacae; format: cell-based; details: E. cloacae 218R1; n = 3; BM2 minimal media; 18-24 hours; crystal violet
E. coli O157:H7 = test: Biofilm inhibition (at least 80%), E. coli; format: cell-based, Escherichia coli; details: n = 3, BM2 minimal media, 18-24 hours, crystal violet
[5] = tested on: Acinetobacter baumannii Ab5075; test: Biofilm inhibition (at least 80%), A. baumannii; format: cell-based; details: n = 4, BM2 minimal media, 18-24 hours, crystal violet
[6] = tested on: Enterococcus faecium #2-1; test: Biofilm inhibition (at least 80%), E. faecium; format: cell-based; details: E. faecium #2-1; n = 3; TSB + 1% glucose; 48 hours; crystal violet
[7] = tested on: peripheral blood mononuclear cells (PBMCs); test: Cytotoxicity (LDH release), PBMCs
[8] = Peptide aggregation in RPMI + 10% FBS with PBMCs (microscopy); format: physicochemical; details: 50 μg/ml, overnight
Method: Peptide Aggregation: Peptide aggregation was assessed qualitatively by examining samples of peptides mixed with PBMCs following overnight incubation at 37 °C and 5% CO2. All samples were prepared in RPMI media containing 10% FBS the same manner as the cytotoxicity assays described above. Visualization of aggregates was done using a Nikon Eclipse TS100 Inverted Microscope at 10× magnification.
In aggregation studies, peptides were added to PBMCs in RPMI media containing 10% FBS and incubated overnight at 37 °C in 5% CO2.
The peptides were also evaluated for their tendency to aggregate when added to RPMI tissue culture media containing 10% fetal bovine serum in the presence of PBMCs. Peptides were added to PBMCs in RPMI media containing 10% FBS and incubated overnight at 37 °C in 5% CO2. […] Compared to a highly aggregation prone peptide, 1018 [Haney, E. F., et al. (2017). Aggregation and its influence on the immunomodulatory activity of synthetic innate defense regulator peptides.
As with the DJK-5 derivatives above, the AB103-D derivatives were evaluated for their tendency to aggregate when added to RPMI tissue culture media containing 10% fetal bovine serum in the presence of PBMCs. Peptides were added to PBMCs in RPMI media containing 10% FBS and incubated overnight at 37 °C in 5% CO2.

MRSA preformed biofilms = test: Biofilm eradication of 24-hr preformed biofilms (TTC metabolic dye), MRSA; format: cell-based, methicillin resistant Staphylococcus aureus; details: 24-hr preformed biofilms treated overnight
[9] = tested on: MRSA biofilms on human skin organoid; test: Skin organoid biofilm infection model, peptide solution, MRSA; format: cell-based, methicillin resistant Staphylococcus aureus; details: peptide solution 4 hrs (FIG. 3A)
[10] = tested on: MRSA biofilms on N/TERT epithelial skin; test: Skin organoid biofilm model, peptide-loaded collagen dressings, MRSA; format: cell-based, methicillin resistant Staphylococcus aureus; details: compared to DJK-5 and ciprofloxacin
[11] = tested on: P. aeruginosa biofilms on N/TERT epithelial skin; test: Skin organoid biofilm model, peptide-loaded collagen dressings, P. aeruginosa; format: cell-based, Pseudomonas aeruginosa; details: compared to DJK-5 and ciprofloxacin
N/TERT keratinocytes = test: Cytotoxicity (LDH release), N/TERT keratinocytes
[12] = tested on: human bronchiolar epithelial cells (HBEs); test: Cytotoxicity (LDH release), human bronchiolar epithelial cells
[13] = tested on: PAO1 biofilms on human skin organoid; test: Skin organoid biofilm infection model, peptide solution, PAO1; format: cell-based, Pseudomonas aeruginosa; details: peptide solution 4 hrs (FIG. 3B)
MRSA USA300 biofilms = test: Biofilm inhibition by >95% pure peptides (crystal violet), MRSA; format: cell-based, methicillin resistant Staphylococcus aureus; details: MRSA, 24 hours
[14] = tested on: P. aeruginosa PAO1 biofilms
P. aeruginosa LESB58 = test: Murine model of abscess infections; format: in vivo, murine; Pseudomonas aeruginosa

CC[C@@H](C)[C@@H](NC(=O)[C@@H](C)NC(=O)[C@@H](CCCNC(=N)N)NC(=O)[C@@H](Cc1c[nH]c2ccccc12)NC(=O)[C@@H](CCC(N)=O)NC(=O)[C@H](N)C(C)C)C(=O)N[C@H](CCCNC(=N)N)C(=O)N[C@@H](C(=O)N[C@@H](C(=O)N[C@@H](C(=O)N[C@@H](C(=O)N[C@H](CCCNC(=N)N)C(N)=O)[C@H](C)CC)C(C)C)[C@H](C)CC)C(C)C [AB107-D, vqwrairvivir-NH2] (H-[dV][dQ][dW][dR][dA][dI][dR][dV][dI][dV][dI][dR]-NH2)
Killing of oral plaque biofilms, long-term exposure ([1]; 10 μg/mL, 1 or 3 days (FIG. 10)): significantly enhanced killing of the oral plaque biofilms | Hemolysis (red blood cells): non-toxic at all concentrations evaluated | Killing of oral plaque biofilms, brief exposure [2]: comparable to or better than peptide DJK-5 | Broad spectrum antibiofilm activity, more active than DJK5 (ESKAPEE Pathogens): 2-4 fold | Peptide/Antibiotic Concentration where at least 80% of biofilm growth was inhibited (P. aeruginosa PAO1): 4 µg/mL | Peptide/Antibiotic Concentration where at least 80% of biofilm growth was inhibited (MRSA USA300): 1 µg/mL | Peptide/Antibiotic Concentration where at least 80% of biofilm growth was inhibited [3]: 4 µg/mL | Peptide/Antibiotic Concentration where at least 80% of biofilm growth was inhibited [4]: 1 µg/mL | Peptide/Antibiotic Concentration where at least 80% of biofilm growth was inhibited (E. coli O157:H7): 1 µg/mL | Peptide/Antibiotic Concentration where at least 80% of biofilm growth was inhibited [5]: 1 µg/mL | Peptide/Antibiotic Concentration where at least 80% of biofilm growth was inhibited [6]: 1 µg/mL | Cytotoxicity (LDH) [7]: non-toxic at all concentrations evaluated

CC[C@@H](C)[C@@H](NC(=O)[C@@H](CCCNC(=N)N)NC(=O)[C@H](N)CCCCN)C(=O)N[C@H](CCCNC(=N)N)C(=O)N[C@H](Cc1c[nH]c2ccccc12)C(=O)N[C@@H](C(=O)N[C@@H](C(=O)N[C@H](CC(C)C)C(=O)N[C@H](CCCNC(=N)N)C(=O)N[C@@H](C(=O)N[C@@H](C(=O)N[C@H](CCCNC(=N)N)C(N)=O)[C@H](C)CC)C(C)C)[C@H](C)CC)C(C)C [AB101-D, krirwvilrvir-NH2] (H-[dK][dR][dI][dR][dW][dV][dI][dL][dR][dV][dI][dR]-NH2)
Peptide aggregation [8]: some small aggregates | Proportion of dead biofilm cells ([1]; 10 μg/ml): superior to DJK5 at killing bacteria cells | Proportion of dead biofilm cells ([1]; 1 or 5 μg/ml): killed more of the biofilm cells | IC50 (MRSA preformed biofilms): 1400 nM | Enhanced antibiofilm eradication activity (PAO1 preformed biofilms; P. aeruginosa, compared with DJK5): > 2 fold | IC50 (PAO1 preformed biofilms; read-out: Biofilm Eradication IC50, PAO1, 24-hr preformed biofilms treated overnight, TTC): 1900 nM | Antibiofilm activity on skin organoid [9]: excellent antibiofilm activity | Antibiofilm activity from collagen dressing [10]: clearly superior activity to both DJK-5 and ciprofloxacin | Antibiofilm activity from collagen dressing [11]: clearly superior activity to both DJK-5 and ciprofloxacin | Cytotoxicity (LDH) (N/TERT keratinocytes): low toxicity | Cytotoxicity (LDH) [12]: low toxicity | Antibiofilm activity on skin organoid [13]: excellent antibiofilm activity | IC50 (MRSA USA300 biofilms): 270 nM | Biofilm inhibition activity compared to DJK5 ([14]; P. aeruginosa): ≥ 4 fold | IC50 ([14]; read-out: Biofilm Inhibition IC50, PAO1, 24 hours, crystal violet): 1100 nM | Abscess size (P. aeruginosa LESB58): reduced abscess size | Cytotoxicity (LDH) [7]: low toxicity
